From patent US12590099B2, “Inhibitors of histone deacetylase useful for the treatment or prevention of HIV infection” (Merck Sharp & Dohme LLC, priority 2018, dated 2026)
Where two headings read alike, the source gives them in different places.

What was measured:
[1] = test system: KARN cells (Jurkat 2C4); assay: cells; type: cell-based; conditions: luciferase induction, 100% = 2 μM SAHA
Protocol: KARN cells (Jurkat 2C4) were licensed from the laboratory of Dr. John Karn, Case Western Reserve University, School of Medicine. […] An atmosphere of 5% CO2 and 90% humidity was used for all culture work.
Day 1: After the 3-4 day growth period, the cells were transferred from the T175 flask to a 50 ml conical tube and gently pelleted at 1000 rpm for 5 minutes. […] These flasks were returned to the incubator.
Day 2: Cell Preparation: The next day, the cells were transferred from each T175 flask to an individual 50 ml conical tube and gently pelleted at 1000 rpm for 5 minutes. The cells were gently resuspended in assay media (30 ml) and pelleted again. […] The cells were counted using the ViCell (Beckman Coulter) and diluted as necessary. […] The plates were covered and returned to the incubator prior to compound addition.
The reference compounds, DMSO and SAHA were then added to the compound plate. […] The final high concentration for SAHA and the test compounds in the assays was 40 μM. The final DMSO concentration in all wells was 0.4%. The minimal induction reference compound used was DMSO and the maximal induction reference compound used was SAHA (2 μM final concentration in the assay).
Day 3: The luciferase detection reagent was prepared by transferring the contents of one bottle of Steady-Glo buffer to one bottle of Steady-Glo aubstrate (Steady-Glo Luciferase Assay System, Promega, catalog number E2520), followed by gently mixing until the substrate was thoroughly dissolved and the solution was equilibrated to room temperature. […] The Steady-Glo Reagent was added to the plates (30 μl/well), which were then covered with a black lid and incubated for 10 minutes at room temperature. The plates were then read for luminescence on an Envision (Perkin Elmer) using the ultrasensitive mode (US LUM), […] and 384-well aperture. Luminescence counts in the DMSO reference wells were considered as 0% induction, while those in the 2 μM SAHA reference wells were considered as 100% induction. Dose response curves were plotted as test compound concentration (X-axis) vs. percent activation (Y-axis) using a 4-parameter fit based on the Levenberg-Marquardt algorithm.

[2] = target: T1, HDAC6 (Homo sapiens, UniProt Q9UBN7); assay: Human HDAC enzyme inhibitor Fluor-de-Lys assay, HDAC6; type: biochemical; conditions: HDAC6, Fluor-de-Lys assay
T1 sequence (Q9UBN7 1-1215): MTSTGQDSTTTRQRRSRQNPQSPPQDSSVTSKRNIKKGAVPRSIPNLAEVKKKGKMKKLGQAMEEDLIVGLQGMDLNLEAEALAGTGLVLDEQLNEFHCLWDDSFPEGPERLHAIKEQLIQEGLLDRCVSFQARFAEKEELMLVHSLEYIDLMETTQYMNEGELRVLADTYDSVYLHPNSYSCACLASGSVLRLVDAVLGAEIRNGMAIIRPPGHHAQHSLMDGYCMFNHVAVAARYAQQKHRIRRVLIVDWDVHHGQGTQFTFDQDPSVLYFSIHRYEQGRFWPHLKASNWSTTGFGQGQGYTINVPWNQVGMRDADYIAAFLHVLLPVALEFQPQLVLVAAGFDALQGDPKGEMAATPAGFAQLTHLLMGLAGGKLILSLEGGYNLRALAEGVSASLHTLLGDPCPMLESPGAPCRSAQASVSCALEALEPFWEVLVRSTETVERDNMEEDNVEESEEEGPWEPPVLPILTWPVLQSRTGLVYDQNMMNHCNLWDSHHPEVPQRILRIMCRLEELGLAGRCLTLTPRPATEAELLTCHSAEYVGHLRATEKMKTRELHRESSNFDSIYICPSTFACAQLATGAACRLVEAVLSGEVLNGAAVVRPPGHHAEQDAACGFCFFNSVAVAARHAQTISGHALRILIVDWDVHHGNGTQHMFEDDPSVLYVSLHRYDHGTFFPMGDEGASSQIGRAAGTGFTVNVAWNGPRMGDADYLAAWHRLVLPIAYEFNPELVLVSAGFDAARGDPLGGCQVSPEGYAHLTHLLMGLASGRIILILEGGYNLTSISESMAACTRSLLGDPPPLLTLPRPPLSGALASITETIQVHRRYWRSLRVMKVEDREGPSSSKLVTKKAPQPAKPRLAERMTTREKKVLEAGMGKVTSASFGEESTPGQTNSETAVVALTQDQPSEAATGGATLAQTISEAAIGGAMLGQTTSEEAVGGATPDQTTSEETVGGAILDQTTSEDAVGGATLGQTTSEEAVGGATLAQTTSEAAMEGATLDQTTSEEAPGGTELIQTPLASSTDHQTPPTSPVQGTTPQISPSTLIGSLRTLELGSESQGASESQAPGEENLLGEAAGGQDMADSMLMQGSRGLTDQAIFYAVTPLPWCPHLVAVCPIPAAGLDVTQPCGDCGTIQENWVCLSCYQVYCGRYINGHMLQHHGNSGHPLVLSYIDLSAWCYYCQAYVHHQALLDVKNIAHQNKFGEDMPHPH
Protocol: (§1) Human HDAC Enzyme Inhibitor Fluor-De-Lys Assay
(§2) Recombinant human HDAC8 (BML-SE145-0100) and HDAC10 (BML-SE559-0050) enzymes, HDAC substrates BML-KI104 and BML-KI178, and HDAC developer solutions BML-KI105 and BML-KI176 were purchased from Enzo Life Sciences. […] HDAC inhibitor suberoylanilide hydroxamic acid (SAHA) was obtained from Indofine and trichostatin A (TSA) was obtained from Sigma-Aldrich.
(§3) The histone deacetylase activities of HDAC1, HDAC2, HDAC3, HDAC6, and HDAC8 were measured in modified FLUOR DE LYS assays in 384-well format. In this assay, HDAC enzymes are initially incubated with an ε-acetyl (or -trifluoroacetyl)-L-lysine-containing substrate with a C-terminal amide having aminomethylcoumarin as the amine component. HDACs cleave the ε-acetyl group, rendering the resulting product susceptible to AMC cleavage by trypsin. The released AMC is then detected by its fluorescence.
(§4) The HDAC3/SMRT assay employed buffer B, consisting of 20 mM HEPES, pH 8.0, 1 mM MgCl2, 50 mM NaCl, 2.7 mM KCl, 0.05% BSA, 0.005% Tween 20, and 10 μM IP4. […] The HDAC8 assay employed buffer D, consisting of 20 mM HEPES, pH 8.0, 1 mM MgCl2, 100 mM NaCl, 20 mM KCl, 0.10% n-octyl-β-D-glucoside (Anatrace) and 0.05% BSA. All steps were performed at room temperature (23° C.). The assay was performed by pre-incubating serial dilutions of test compounds with the target HDAC prior to initiation with substrate. Each compound was titrated in a 10-point dose response, using a 1:3 fold dilution scheme, with 0.15 ul of solution added by ECH0555 to the plate, followed by the addition of 20 μl of the appropriate HDAC isoform diluted in appropriate assay buffer. […] Final conditions used for each assay were: 1. HDAC 1, 0.3 nM total enzyme, 20 μM substrate BML-KI104; 2. […] HDAC 3/SMRT, 0.3 nM total enzyme, 20 μM substrate BML-KI104; 4. […] The reactions were stopped and developed by addition of 30 ul of HDAC developer solution containing a saturating level of HDAC inhibitor as follows: 1.

[3] = target: T2, Recombinant human HDAC8 (Homo sapiens, UniProt Q9BY41); assay: Human HDAC enzyme inhibitor Fluor-de-Lys assay, HDAC8; type: biochemical; conditions: recombinant human HDAC8, Fluor-de-Lys assay
T2 construct: purchased Enzo Life Sciences BML-SE145-0100
T2 sequence (Q9BY41 1-377): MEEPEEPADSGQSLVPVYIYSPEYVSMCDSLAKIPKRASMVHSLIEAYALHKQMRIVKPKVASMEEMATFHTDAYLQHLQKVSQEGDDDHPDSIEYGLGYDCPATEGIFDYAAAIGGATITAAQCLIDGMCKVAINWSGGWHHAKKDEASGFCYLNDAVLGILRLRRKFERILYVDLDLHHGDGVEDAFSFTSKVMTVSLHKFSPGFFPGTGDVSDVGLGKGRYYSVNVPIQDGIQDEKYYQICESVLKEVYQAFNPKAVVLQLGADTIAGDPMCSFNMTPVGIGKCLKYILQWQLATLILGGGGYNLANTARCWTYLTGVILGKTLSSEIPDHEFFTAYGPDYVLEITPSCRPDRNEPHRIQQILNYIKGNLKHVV
Protocol: as §1, §2, §3, §4

[4] = read-out: Karn EC50 (nM) 0.1% NHS, 0.1% normal human serum
[5] = read-out: Karn EC50 (nM) 5% NHS, 5% normal human serum
[6] = Homo sapiens, Jurkat, read-out: Karn EC50 (nM) 0.1% NHS, 0.1% normal human serum
[7] = Homo sapiens, Jurkat, read-out: Karn EC50 (nM) 5% NHS, 5% normal human serum

Compound	EC50 [1, 4]	EC50 [1, 5]	IC50 [2]	IC50 [3]	EC50 [1, 6]	EC50 [1, 7]
CCC(=O)CCCCC[C@H](NC(=O)[C@H]1CC12CCCN(C)C2)c1ncc(-c2cc3ccccc3nc2OC)[nH]1 (some centres unmarked) [Compound 287]	81 nM	325 nM	351 nM	2780 nM		
CCC(=O)CCCCC[C@H](NC(=O)[C@H]1CC12CCN(CC)CC2)c1ncc(-c2cc3ccccc3nc2O)[nH]1 [Compound 291]			741 nM	> 15000 nM	192 nM	295 nM
CCC(=O)CCCCC[C@H](NC(=O)[C@@H]1CC12CCN(CC)CC2)c1ncc(-c2cc3ccccc3[nH]c2=O)[nH]1 [Compound 292]			> 1500 nM	> 4500 nM	992 nM	1380 nM
CCC(=O)CCCCC[C@H](NC(=O)[C@H]1CC12CCN(Cc1ccccc1)CC2)c1ncc(-c2cc3ccccc3nc2OC)[nH]1 [Compound 293]			727 nM	8200 nM	75 nM	175 nM
CCC(=O)CCCCC[C@H](NC(=O)[C@H]1CC12CCN(Cc1cccnc1)CC2)c1ncc(-c2cc3ccccc3nc2OC)[nH]1 [Compound 294]			415 nM	4920 nM	63 nM	277 nM
CCC(=O)CCCCC[C@H](NC(=O)[C@H]1CC12CCN(Cc1ccc(OC)cc1)CC2)c1ncc(-c2cc3ccccc3nc2OC)[nH]1 [Compound 295]			973 nM	3230 nM	113 nM	180 nM
CCC(=O)CCCCC[C@H](NC(=O)C1CC2(C1)CN(C)C2)c1ncc(-c2cc3ccccc3nc2OC)[nH]1 [Compound 311]			385 nM	2660 nM	131 nM	841 nM
CCC(=O)CCCCC[C@H](NC(=O)C1CC12CN(C)C2)c1ncc(-c2cc3ccccc3nc2OC)[nH]1 (some centres unmarked) [Compound 312]			299 nM	2020 nM	155 nM	633 nM
CCC(=O)CCCCC[C@H](NC(=O)C1CC12CCN(C)CC2)c1ncc(-c2cc3ccccc3nc2OC)[nH]1 (stereo partly drawn) [Compound 313, N—((S)-1-(5-(2-methoxyquinolin-3-yl)-1H-imidazol-2-yl)-7-oxononyl)-6-methyl-6-azaspiro[2.5]octane-1-carboxamide]			246 nM	3020 nM	57 nM	272 nM
CCC(=O)CCCCC[C@H](NC(=O)C1CCC2(CC1)CN(C)C2)c1ncc(-c2cc3ccccc3nc2OC)[nH]1 [Compound 315]			459 nM	1950 nM	86 nM	688 nM
CCC(=O)CCCCC[C@H](NC(=O)C1CCC2(CC1)CN(C)C2)c1ncc(-c2cc3ccccc3nc2OC)[nH]1 [Compound 316]	151 nM	660 nM	387 nM	1680 nM		
CCC(=O)CCCCC[C@H](NC(=O)[C@@H]1CC12CN(C)C2)c1ncc(-c2cc3ccccc3nc2OC)[nH]1 [Compound 322]			219 nM	2490 nM	74 nM	287 nM
CCC(=O)CCCCC[C@H](NC(=O)[C@H]1CC12CN(C)C2)c1ncc(-c2cc3ccccc3nc2OC)[nH]1 [Compound 323]			376 nM	2300 nM	284 nM	1290 nM
CCC(=O)CCCCC[C@H](NC(=O)[C@H]1C[C@@]12CCN(C)C2)c1ncc(-c2cc3ccccc3nc2OC)[nH]1 [Compound 328]			395 nM	3310 nM	73 nM	322 nM
CCC(=O)CCCCC[C@H](NC(=O)[C@@H]1C[C@]12CCN(C)C2)c1ncc(-c2cc3ccccc3nc2OC)[nH]1 [Compound 329]			> 150 nM	7040 nM	262 nM	1140 nM
CCC(=O)CCCCC[C@H](NC(=O)[C@@H]1C[C@@]12CCN(C)C2)c1ncc(-c2cc3ccccc3nc2OC)[nH]1 [Compound 330]			632 nM	13700 nM	309 nM	1150 nM
CCCN1CCC2(CC1)C[C@@H]2C(=O)N[C@@H](CCCCCC(=O)CC)c1ncc(-c2cc3ccccc3nc2OC)[nH]1 [Compound 331]			490 nM	2030 nM	154 nM	896 nM
